We go through 16 molecules from patent US7960427B2, “5-hydroxyindole-3-carboxylate derivatives and uses thereof” (priority 2004, dated 2011).

The IC50 is the midpoint of a concentration-inhibition curve.

Values after ≈ are worked out from the molar mass of the structure shown. Where a name gives a salt, the structure may show the parent alone.

For one series, the system named is HBsAg. The experiment in a line: In vitro anti-HBV activity: HBsAg production in HBV-infected 2.2.15 cells (RIA). The conditions noted are these: for IC50: Hepatitis B virus, read-out: HBsAg IC50; for HBsAg SI: selectivity index. Type of series: cell-based, Hepatitis B virus (HBV). As for the experimental part:
(§1) All compounds were evaluated for their anti-HBV activities, namely the ability to inhibit the replication of HBV DNA and the production of HBsAg and HBeAg in HBV-infected 2.2.15 cells.
(§2) The samples were dissolved in DMSO for appropriate concentrations, and then each was diluted 3-fold with culture medium. The 2.2.15 cells were planted into 96-well culture plates. […] The culture supernatants and 2.2.15 cells were collected respectively on the 8th plant day. The secretion concentrations of HBsAg and HBeAg in the culture supernatants were measured by RIA on SPRIA Kit for Detection of HBsAg and HBeAg (Beijing North Institute of Biological Technology), and the replication of HBV DNA was measured by dot hybridization with a^32PdCTP (FuRui Biological Technology Ltd., China).

Another series concerns HBeAg. The experiment in a line: In vitro anti-HBV activity: HBeAg production in HBV-infected 2.2.15 cells (RIA). Type of series: cell-based, Hepatitis B virus (HBV). The conditions noted are these: for IC50: Hepatitis B virus, read-out: HBeAg IC50; for HBeAg SI: selectivity index. As for the experimental part: as §1, §2
The next series deals with 2.2.15 cells. The series can be described thus: Cytotoxicity (TC50) in 2.2.15 cells. The series is classed as cell-based.
Series [1] deals with Madin-Darby canine kidney (MDCK) cells.
Series [2] has as its system influenza A virus, strain A/jifang/90-15. The experiment in a line: microbe, parasite or virus in culture. Type of series: cell-based. The conditions noted are these: for IC50: Influenza A virus, Influenza strain A/jifang/90-15, MDCK cells, CPE, Reed-Muench, read-out: IC50; for SI: Influenza strain A/jifang/90-15.
A further series deals with HBV DNA. The series can be described thus: In vitro anti-HBV activity: replication of HBV DNA in 2.2.15 cells (dot hybridization). The note with it: for IC50: Hepatitis B virus, read-out: DNA replication IC50; for DNA replication SI: selectivity index. The series is classed as cell-based, Hepatitis B virus (HBV). In short, it runs like this: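 HBV-producing 2.2.15 cells exposed to 3-fold serial dilutions of compound (DMSO stocks diluted in medium); cells and supernatants harvested on day 8. Intracellular HBV DNA replication quantified by dot hybridization with α-32P-dCTP probe; HBsAg/HBeAg in supernatant by RIA.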

Consider `CCOC(=O)c1c(C[S+]([O-])Cc2cscn2)n(C2CC2)c2cc(Br)c(O)c(Cn3ccnc3C)c12` (stereo not drawn) [Example 182, Ethyl 6-bromo-1-cyclopropyl-5-hydroxy-4-[(2-methyl-1-imidazolyl)methyl]-2-[(4-thiazolylmethyl)sulfinylmethyl]-1H-indole-3-carboxylate dihydrochloride], for which, in the series on HBsAg, the IC50 stood at 4.66 µg/mL and the “HBsAg SI” value is reported as 13.77. Moreover, in the series with HBeAg, the half-inhibitory concentration (IC50) worked out at 7.69 µg/mL and the “HBeAg SI” value was 8.34. The molecule also displayed a TC50 in the series with 2.2.15 cells of 64.15 µg/mL.
Taken in the same sequence, the figures for `CCOC(=O)c1c(CS(=O)(=O)C23CC4CC(CC(C4)C2)C3)n(C)c2cc(Br)c(O)c(Cn3ccnc3C)c12` [Example 179, Ethyl 6-bromo-5-hydroxy-1-methyl-4-[(2-methyl-1-imidazolyl)methyl]-2-[(1-adamantanyl)sulfonylmethyl]-1H-indole-3-carboxylate] were 1.88 µg/mL (≈ 3.11 µM), 5.69, 1.91 µg/mL (≈ 3.16 µM), 5.60 and 10.69 µg/mL (≈ 17.7 µM).
Turning to `CCOC(=O)c1c(CSCc2ccc(F)cc2)n(C)c2cc(Br)c(O)c(Cn3cncn3)c12` [Example 187, Ethyl 6-bromo-5-hydroxy-1-methyl-4-[(1H-1,2,4-triazol-1-yl)methyl]-2-[(4-fluorobenzyl)thiomethyl]-1H-indole-3-carboxylate], in series [1], the TC50 turned out to be 44.19 µg/mL (≈ 82.8 µM). In series [2], the concentration for half-maximal inhibition (IC50) was found to be 26.6 µg/mL (≈ 49.9 µM) and the SI turned out to be 1.66.
As for `CCOC(=O)c1c(CSCc2ccc(F)cc2)n(C)c2cc(Br)c(O)c(Cn3ccnc3C)c12` [Example 100, Ethyl 6-bromo-5-hydroxy-1-methyl-4-[(2-methyl-1-imidazolyl)methyl]-2-[(4-fluorobenzyl)thiomethyl]-1H-indole-3-carboxylate], in series [1], the TC50 amounted to 49.61 µg/mL (≈ 90.8 µM). Moreover, in series [2], the IC50 stood at 22.1 µg/mL (≈ 40.4 µM) and the SI was 2.24.
For the molecule `CCOC(=O)c1c(C[S+]([O-])Cc2ccccc2)n(C2CC2)c2cc(Br)c(O)c(Cn3ccnc3)c12` (stereo not drawn) [Example 126, Ethyl 6-bromo-1-cyclopropyl-5-hydroxy-4-[(1-imidazolyl)methyl]-2-(benzylsulfinylmethyl)-1H-indole-3-carboxylate], in series [1], the TC50 amounted to 44.19 µg/mL (≈ 79.4 µM). Moreover, in the series on 2.2.15 cells, the TC50 amounted to 35.61 µg/mL (≈ 64 µM). In addition, in the series with HBV DNA, the IC50 stood at 6.36 µg/mL (≈ 11.4 µM) and the “DNA replication SI” value worked out at 5.60. In series [2], the IC50 is 11.1 µg/mL (≈ 19.9 µM) and the SI is 4.0.
Take `CCOC(=O)c1c(C[S+]([O-])Cc2cscn2)n(C2CC2)c2cc(Br)c(O)c(Cn3ccnc3)c12` (stereo not drawn) [Example 128, Ethyl 6-bromo-1-cyclopropyl-5-hydroxy-4-[(1-imidazolyl)methyl]-2-[(4-thiazolylmethyl)sulfinylmethyl]-1H-indole-3-carboxylate dihydrochloride]: in the series with HBsAg, the IC50 was found to be 7.23 µg/mL and the “HBsAg SI” value is given as 7.39. In the series on HBeAg, the IC50 is 8.06 µg/mL and the “HBeAg SI” value stood at 6.63. The same molecule showed a TC50 in the series with 2.2.15 cells of 53.42 µg/mL.
Turning to `CCOC(=O)c1c(CSCc2ccc(F)cc2)n(C)c2cc(Br)c(O)c(CN(C)C)c12.Cl` [Example 5, Ethyl 6-bromo-4-[(dimethylamino)methyl]-5-hydroxy-1-methyl-2-[(4-fluorobenzyl)thiomethyl]-1H-indole-3-carboxylate hydrochloride], the TC50 in series [1] was determined as 49.51 µg/mL. In addition, in series [2], the IC50 is 7.81 µg/mL and the SI is reported as 6.34.
As to `CCOC(=O)c1c(CS(=O)(=O)c2cccc(OC)c2)n(C)c2ccc(O)c(CN3CCCC3)c12` [Example 72, Ethyl 5-hydroxy-1-methyl-4-(1-pyrrolidinylmethyl)-2-[(3-methoxyphenyl)sulfonylmethyl]-1H-indole-3-carboxylate hydrochloride], in the series on HBeAg, the 50% inhibitory concentration (IC50) is 15.4 µg/mL and the “HBeAg SI” value worked out at 6.9. The molecule further displayed a TC50 with 2.2.15 cells of 106.83 µg/mL. Besides, in the series with HBV DNA, the IC50 amounted to 15.4 µg/mL and the “DNA replication SI” value is recorded as 6.9.
On to `CCOC(=O)c1c(CSc2nc3ccccc3[nH]2)n(C)c2cc(Br)c(O)c(CNC(=N)N)c12` [Example 189, Ethyl 6-bromo-4-(guanidinylmethyl)-5-hydroxy-1-methyl-2-[(benzo[d]imidazol-2-yl)thiomethyl]-1H-indole-3-NL carboxylate], for which, in the series with HBsAg, the IC50 is 12.5 µg/mL (≈ 23.6 µM) and the “HBsAg SI” value was 20.66. In addition, in the series on HBeAg, the IC50 amounted to 28 µg/mL (≈ 52.6 µM) and the “HBeAg SI” value was 9.25. The TC50 in the series with 2.2.15 cells was found to be 258.69 µg/mL (≈ 487 µM). Further, in the series on HBV DNA, the IC50 came to 12.4 µg/mL (≈ 23.3 µM) and the “DNA replication SI” value worked out at 20.91.
For the molecule `CCOC(=O)c1c(CSc2nc3ccccc3[nH]2)n(C)c2cc(Br)c(O)c(CN(C)C)c12` [Example 3, Ethyl 6-bromo-4-[(dimethylamino)methyl]-5-hydroxy-1-methyl-2-[(benzo[d]imidazol-2-yl)thiomethyl]-1H-indole-3-carboxylate], the TC50 in series [1] is 12.4 µg/mL (≈ 24 µM). Further, in series [2], the IC50 is 7.81 µg/mL (≈ 15.1 µM) and the SI is 1.59.
The corresponding values for `CCOC(=O)c1c(CS(=O)(=O)Cc2ccccc2)n(C2CC2)c2cc(Br)c(O)c(Cn3ccnc3C)c12` [Example 178, Ethyl 6-bromo-1-cyclopropyl-5-hydroxy-4-[(2-methyl-1-imidazolyl)methyl]-2-(benzylsulfonylmethyl)-1H-indole-3-carboxylate] are 78.75 µg/mL (≈ 134 µM), 7.81 µg/mL (≈ 13.3 µM) and 10.08.
Taken in the same sequence, the figures for `CCOC(=O)c1c(CSCc2ccccc2F)n(C2CC2)c2cc(Br)c(O)c(CN3CCCC3)c12.Cl` [Example 14, Ethyl 6-bromo-1-cyclopropyl-5-hydroxy-4-(1-pyrrolidinylmethyl)-2-[(2-fluorobenzyl)thiomethyl]-1H-indole-3-carboxylate hydrochloride] were 2.48 µg/mL, 0.92 µg/mL and 2.7.
Taken in the same sequence, the figures for `CCOC(=O)c1c(CSc2nc3ccc(OC)cc3[nH]2)n(C)c2cc(Br)c(O)c(CN3CCOCC3)c12` [Example 25, Ethyl 6-bromo-5-hydroxy-1-methyl-4-(morpholinomethyl)-2-[(5-methoxybenzo[d]imidazol-2-yl)thiomethyl]-1H-indole-3-carboxylate] were 125.0 µg/mL (≈ 212 µM), 22.1 µg/mL (≈ 37.5 µM) and 5.66.
Consider `CCOC(=O)c1c(CSc2ccccc2)n(C)c2cc(Br)c(O)c(CN(C)C)c12.Cl.O` [Abidol, Ethyl 6-bromo-4-[(dimethylamino)methyl]-5-hydroxy-1-methyl-2-(phenyl-thiomethyl)-1H-indole-3-carboxylate hydrochloride monohydrate, reference compound], for which, in series [1], the TC50 was 62.5 µg/mL. In series [2], the IC50 is 23.2 µg/mL and the SI was determined as 2.69.
On to `CCOC(=O)c1c(CSCc2ccccc2F)n(C2CC2)c2cc(Br)c(O)c(Cn3cncn3)c12` [Example 186, Ethyl 6-bromo-1-cyclopropyl-5-hydroxy-4-[(1H-1,2,4-triazol-1-yl)methyl]-2-[(2-fluorobenzyl)thiomethyl]-1H-indole-3-carboxylate], for which the TC50 in series [1] was 62.5 µg/mL (≈ 112 µM). In series [2], the half-inhibitory concentration (IC50) is 9.17 µg/mL (≈ 16.4 µM) and the SI was determined as 6.82.
The corresponding values for `CCOC(=O)c1c(CSCc2ccc(F)cc2)n(C)c2cc(Br)c(O)c(Cn3ccnc3)c12` [Example 92, Ethyl 6-bromo-5-hydroxy-4-[(1-imidazolyl)methyl]-1-methyl-2-[(4-fluorobenzyl)thiomethyl]-1H-indole-3-carboxylate] are 18.34 µg/mL (≈ 34.4 µM), 7.81 µg/mL (≈ 14.7 µM) and 2.35.
